Measurements as given in patent publication US4820694A, “Modifications of 3-O-demethylmycinose in macrocin and lactenocin” (priority 1986, dated 1989).
In brackets after ≈: the same amount, converted by molar mass. Like-named read-outs stand apart in the source and are kept apart here.

Legend:
[1] = system: Haemophilus influenzae C.L.; test: standard agar-dilution MIC assay; format: cell-based; settings: Haemophilus influenzae; agar-dilution; Ampicillin-sensitive strain; read-out: MIC
Experimental: (§1) The MIC's in Table III were determined by standard agar-dilution assays. The MIC's in Table IV were obtained using conventional brothdilution microtiter tests.

[2] = system: Streptococcus Group D X66; test: standard agar-dilution MIC assay; format: cell-based; settings: read-out: MIC
Experimental: as §1

[3] = system: Staphylococcus aureus X400; test: standard agar-dilution MIC assay; format: cell-based; settings: Staphylococcus aureus, X400
Experimental: as §1

[4] = system: Streptococcus Group D 2041; test: standard agar-dilution MIC assay; format: cell-based; settings: GROUPD2041
Experimental: as §1

[5] = system: Streptococcus pyogenes C203; test: standard agar-dilution MIC assay; format: cell-based; settings: Streptococcus pyogenes, C203
Experimental: as §1

[6] = system: Haemophilus influenzae 76; test: standard agar-dilution MIC assay; format: cell-based; settings: Haemophilus influenzae, 76; agar-dilution; Ampicillin-resistant strain; read-out: MIC
Experimental: as §1

Escherichia coli EC14 = test: standard agar-dilution MIC assay; format: cell-based; settings: agar-dilution, read-out: MIC
Experimental: as §1

[7] = system: Staphylococcus aureus V41; test: standard agar-dilution MIC assay; format: cell-based; settings: Staphylococcus aureus, V41
Experimental: as §1

[8] = system: Staphylococcus epidermidis EPI1; test: standard agar-dilution MIC assay; format: cell-based; settings: Staphylococcus epidermidis, EPI1
Experimental: as §1

[9] = system: Pseudomonas aeruginosa X239; test: standard agar-dilution MIC assay; format: cell-based; settings: Pseudomonas aeruginosa, X239; agar-dilution; read-out: MIC
Experimental: as §1

[10] = system: Klebsiella pneumoniae X68; test: standard agar-dilution MIC assay; format: cell-based; settings: Klebsiella pneumoniae, X68; agar-dilution; read-out: MIC
Experimental: as §1

[11] = system: Staphylococcus aureus X1.1; test: standard agar-dilution MIC assay; format: cell-based; settings: Staphylococcus aureus, X1.1
Experimental: as §1

[12] = system: Staphylococcus epidermidis 222; test: standard agar-dilution MIC assay; format: cell-based; settings: Staphylococcus epidermidis, 222
Experimental: as §1

[13] = system: Streptococcus pyogenes C203; test: protection of mice experimentally infected with S. pyogenes C203; format: in vivo; settings: mice, mg/kg × 2, doses given 1 and 4 hours postinfection, read-out: ED50
Summary of the method: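 Activity is given as ED50, the mg/kg dose (×2) protecting half of the mice infected with S. pyogenes C203. Compound was dosed 1 and 4 h after infection.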

[14] = system: Streptococcus pneumoniae Park I; test: microbe, parasite or virus in culture; format: cell-based; settings: Streptococcus pneumoniae
Experimental: as §1

[15] = system: Staphylococcus aureus S13E; test: microbe, parasite or virus in culture; format: cell-based; settings: Staphylococcus aureus, S13E
Experimental: as §1

[16] = system: Streptococcus Group D 9960; test: standard agar-dilution MIC assay; format: cell-based; settings: GROUPD9960, read-out: MIC
Experimental: as §1

[17] = system: Staphylococcus epidermidis EP12; test: standard agar-dilution MIC assay; format: cell-based
Experimental: as §1

Mycoplasma synoviae 40A = test: broth-dilution microtiter MIC test; format: cell-based; settings: Mycoplasmopsis synoviae, 40A
Experimental: as §1

[18] = system: Pasteurella hemolytica 23C; test: broth-dilution microtiter MIC test; format: cell-based; settings: Pasteurella, 23C; broth-dilution microtiter; read-out: MIC
Experimental: as §1

[19] = system: Staphylococcus aureus 19C; test: broth-dilution microtiter MIC test; format: cell-based; settings: Staphylococcus aureus, 19C
Experimental: as §1

[20] = system: Mycoplasma gallisepticum 36H; test: broth-dilution microtiter MIC test; format: cell-based; settings: Mycoplasmoides gallisepticum, 36H
Experimental: as §1

[21] = system: Pasteurella hemolytica 41D; test: broth-dilution microtiter MIC test; format: cell-based; settings: Pasteurella, 41D; broth-dilution microtiter; read-out: MIC
Experimental: as §1

[22] = system: Pasteurella hemolytica 22C; test: broth-dilution microtiter MIC test; format: cell-based; settings: Pasteurella, 22C; broth-dilution microtiter; read-out: MIC
Experimental: as §1

[23] = system: Bordetella bronchiseptica; test: broth-dilution microtiter MIC test; format: cell-based; settings: Bordetella bronchiseptica; broth-dilution microtiter; read-out: MIC
Experimental: as §1

[24] = system: Pasteurella multocida 40G; test: broth-dilution microtiter MIC test; format: cell-based; settings: Pasteurella multocida, 40G; broth-dilution microtiter; read-out: MIC
Experimental: as §1

[25] = system: Mycoplasma gallisepticum 29C; test: broth-dilution microtiter MIC test; format: cell-based; settings: Mycoplasmoides gallisepticum, 29C
Experimental: as §1

[26] = system: Pasteurella multocida 17E; test: broth-dilution microtiter MIC test; format: cell-based; settings: Pasteurella multocida, 17E; broth-dilution microtiter; Bovine isolate; read-out: MIC
Experimental: as §1

[27] = system: Pasteurella multocida 60A; test: broth-dilution microtiter MIC test; format: cell-based; settings: Pasteurella multocida, 60A; broth-dilution microtiter; Avian isolate; read-out: MIC
Experimental: as §1

[28] = system: Pasteurella multocida 22A; test: broth-dilution microtiter MIC test; format: cell-based; settings: Pasteurella multocida, 22A; broth-dilution microtiter; read-out: MIC
Experimental: as §1

[29] = system: Pasteurella multocida 68C; test: broth-dilution microtiter MIC test; format: cell-based; settings: Pasteurella multocida, 68C
Experimental: as §1

Streptococcus sp. 19F = test: broth-dilution microtiter MIC test; format: cell-based; settings: Streptococcus, SP.19F
Experimental: as §1

Mycoplasma hyorhinis 29E = test: broth-dilution microtiter MIC test; format: cell-based; settings: Mycoplasma, 29E
Experimental: as §1

[30] = system: Mycoplasma gallisepticum 15E; test: broth-dilution microtiter MIC test; format: cell-based; settings: Mycoplasmoides gallisepticum, 15E
Experimental: as §1

Structure (SMILES) | MIC [1] [µg/mL] | MIC [2] [µg/mL] | MIC [3] [µg/mL] | MIC [4] [µg/mL] | MIC [5] [µg/mL] | MIC [6] [µg/mL] | MIC (Escherichia coli EC14) [µg/mL] | MIC [7] [µg/mL] | MIC [8] [µg/mL] | MIC [9] [µg/mL] | MIC [10] [µg/mL] | MIC [11] [µg/mL] | MIC [12] [µg/mL] | ED50 ([13]; C203, Oral) [mg/kg] | ED50 ([13]; C203, sc, Subcutaneous) [mg/kg] | MIC [14] [µg/mL] | MIC [15] [µg/mL] | further results
CCC1OC(=O)CC(O)C(C)C(OC2OC(C)C(O)C(N(C)C)C2O)C(CCOc2ccccc2)CC(C)C(=O)C=CC(C)=CC1COC1OC(C)C2OC(=S)OC2C1OC (centres unmarked) [Compound 59, 20-DH-20-O-Phenyl-lactenocin 3",4"-thiocarbonate] | 128 (≈ 146 µM) | 16 (≈ 18.2 µM) | 1 (≈ 1.14 µM) | 32 (≈ 36.4 µM) | 2 (≈ 2.28 µM) | 128 (≈ 146 µM) | > 128 | 1 (≈ 1.14 µM) | 2 (≈ 2.28 µM) | > 128 | > 128 | 1 (≈ 1.14 µM) | 0.5 (≈ 0.569 µM) | 54 | 10 | 2 (≈ 2.28 µM) | 1 (≈ 1.14 µM) | –
CCC1OC(=O)CC(O)C(C)C(OC2OC(C)C(OC(C)=O)C(N(C)C)C2OC(C)=O)C(CCOc2ccccc2)CC(C)C(=O)C=CC(C)=CC1COC1OC(C)C=CC1OC (centres unmarked) [Compound 42, 2',4'-Di-O-acetyl-3",4"-di(dehydrodeoxy)-20-DH-20-O-phenyl-lactenocin] | > 128 | 4 (≈ 4.51 µM) | 0.5 (≈ 0.564 µM) | 4 (≈ 4.51 µM) | 1 (≈ 1.13 µM) | > 128 | > 128 | 0.5 (≈ 0.564 µM) | 1 (≈ 1.13 µM) | > 128 | > 128 | 1 (≈ 1.13 µM) | 0.5 (≈ 0.564 µM) | – | – | 1 (≈ 1.13 µM) | 4 (≈ 4.51 µM) | –
CCC1OC(=O)CC(O)C(C)C(OC2OC(C)C(OC3CC(C)(O)C(O)C(C)O3)C(N(C)C)C2OC(C)=O)C(CC=O)CC(C)C(=O)C=CC(C)=CC1COC1OC(C)C(OC(=O)CC(C)C)C(O)C1OC (centres unmarked) [Compound 5, 2'-O-Acetyl-4'"-O-isovaleryl-macrocin] | > 128 | 2 (≈ 1.95 µM) | 4 (≈ 3.89 µM) | – | 1 (≈ 0.973 µM) | > 128 | > 128 | 2 (≈ 1.95 µM) | 2 (≈ 1.95 µM) | > 128 | > 128 | 2 (≈ 1.95 µM) | – | 54.3 | 9.2 | 0.5 (≈ 0.486 µM) | 2 (≈ 1.95 µM) | MIC [16]: 2 µg/mL (≈ 1.95 µM); MIC [17]: 2 µg/mL (≈ 1.95 µM); MIC (Mycoplasma synoviae 40A): 1.56 µg/mL (≈ 1.52 µM); MIC [18]: > 50 µg/mL; MIC [19]: 3.12 µg/mL (≈ 3.03 µM); MIC [20]: 50 µg/mL (≈ 48.6 µM); MIC [21]: > 50 µg/mL; MIC [22]: > 50 µg/mL; MIC [23]: > 50 µg/mL; MIC [24]: > 50 µg/mL; MIC [25]: 1.56 µg/mL (≈ 1.52 µM); MIC [26]: > 50 µg/mL; MIC [27]: > 50 µg/mL; MIC [28]: > 50 µg/mL; MIC [29]: 50 µg/mL (≈ 48.6 µM); MIC (Streptococcus sp. 19F): 1.56 µg/mL (≈ 1.52 µM); MIC (Mycoplasma hyorhinis 29E): 1.56 µg/mL (≈ 1.52 µM); MIC [30]: 50 µg/mL (≈ 48.6 µM)
